Data published in the NIST ThermoML archive (doi:10.1021/je900387e).
Numbers after ± are expanded uncertainties.

Assay: xn = mol fraction of the nth substance listed
Settings: Liquid, Pycnometric method

CCCCCl [1-chlorobutane] + O=C=O
Settings	mass density [kg/m3]
327.6 K, 14940 kPa, x1 = 0.0981	822 ± 4
327.6 K, 15140 kPa, x1 = 0.0981	825 ± 4
332.4 K, 9070 kPa, x1 = 0.1488	732 ± 4
332.4 K, 9260 kPa, x1 = 0.1488	737 ± 4
332.4 K, 9420 kPa, x1 = 0.1488	740 ± 4
332.4 K, 9430 kPa, x1 = 0.0981	649 ± 4
332.4 K, 9510 kPa, x1 = 0.0981	654 ± 4
332.4 K, 9560 kPa, x1 = 0.0981	657 ± 4
332.4 K, 9590 kPa, x1 = 0.1488	744 ± 4
332.4 K, 9660 kPa, x1 = 0.0981	663 ± 4
332.4 K, 9750 kPa, x1 = 0.0483	421 ± 4
332.4 K, 9760 kPa, x1 = 0.0981	669 ± 4
332.4 K, 9760 kPa, x1 = 0.1488	748 ± 4
332.4 K, 9800 kPa, x1 = 0.0483	426 ± 4
332.4 K, 9860 kPa, x1 = 0.0483	433 ± 4
332.4 K, 9870 kPa, x1 = 0.0981	675 ± 4
332.4 K, 9910 kPa, x1 = 0.0483	441 ± 4
332.4 K, 9940 kPa, x1 = 0.1488	751 ± 4
332.4 K, 9970 kPa, x1 = 0.0483	449 ± 4
332.4 K, 10000 kPa, x1 = 0.0981	682 ± 4
332.4 K, 10050 kPa, x1 = 0.0483	458 ± 4
332.4 K, 10130 kPa, x1 = 0.0981	687 ± 4
332.4 K, 10130 kPa, x1 = 0.1488	755 ± 4
332.4 K, 10150 kPa, x1 = 0.0483	469 ± 4
332.4 K, 10200 kPa, x1 = 0.0483	478 ± 4
332.4 K, 10280 kPa, x1 = 0.0483	487 ± 4
332.4 K, 10290 kPa, x1 = 0.0981	694 ± 4
332.4 K, 10340 kPa, x1 = 0.1488	758 ± 4
332.4 K, 10390 kPa, x1 = 0.0483	497 ± 4
332.4 K, 10470 kPa, x1 = 0.0981	700 ± 4
332.4 K, 10490 kPa, x1 = 0.0483	507 ± 4
332.4 K, 10570 kPa, x1 = 0.1488	762 ± 4
332.4 K, 10590 kPa, x1 = 0.0483	518 ± 4
332.4 K, 10650 kPa, x1 = 0.0981	707 ± 4
332.4 K, 10700 kPa, x1 = 0.0483	529 ± 4
332.4 K, 10800 kPa, x1 = 0.1488	766 ± 4
332.4 K, 10830 kPa, x1 = 0.0483	541 ± 4
332.4 K, 10850 kPa, x1 = 0.0981	713 ± 4
332.4 K, 10970 kPa, x1 = 0.0483	554 ± 4
332.4 K, 11030 kPa, x1 = 0.1488	770 ± 4
332.4 K, 11080 kPa, x1 = 0.0981	720 ± 4
332.4 K, 11140 kPa, x1 = 0.0483	569 ± 4
332.4 K, 11280 kPa, x1 = 0.1488	774 ± 4
332.4 K, 11330 kPa, x1 = 0.0981	727 ± 4
332.4 K, 11350 kPa, x1 = 0.0483	584 ± 4
332.4 K, 11560 kPa, x1 = 0.0483	598 ± 4
332.4 K, 11570 kPa, x1 = 0.1488	778 ± 4
332.4 K, 11590 kPa, x1 = 0.0981	734 ± 4
332.4 K, 11830 kPa, x1 = 0.0483	613 ± 4
332.4 K, 11840 kPa, x1 = 0.1488	782 ± 4
332.4 K, 11980 kPa, x1 = 0.0981	743 ± 4
332.4 K, 12120 kPa, x1 = 0.0483	629 ± 4
332.4 K, 12300 kPa, x1 = 0.0483	637 ± 4
332.4 K, 12330 kPa, x1 = 0.1488	788 ± 4
332.4 K, 12430 kPa, x1 = 0.0981	753 ± 4
332.4 K, 12530 kPa, x1 = 0.0483	648 ± 4
332.4 K, 12610 kPa, x1 = 0.0483	652 ± 4
332.4 K, 12820 kPa, x1 = 0.1488	794 ± 4
332.4 K, 12960 kPa, x1 = 0.0981	763 ± 4
332.4 K, 13360 kPa, x1 = 0.1488	800 ± 4
332.4 K, 13540 kPa, x1 = 0.0981	774 ± 4
332.4 K, 13940 kPa, x1 = 0.1488	806 ± 4
332.4 K, 14190 kPa, x1 = 0.0981	785 ± 4
332.4 K, 14570 kPa, x1 = 0.1488	813 ± 4
332.4 K, 14840 kPa, x1 = 0.1488	816 ± 4
332.4 K, 14900 kPa, x1 = 0.0981	795 ± 4
332.4 K, 15110 kPa, x1 = 0.0981	798 ± 4
333.3 K, 9630 kPa, x1 = 0.0744	545 ± 4
333.3 K, 9660 kPa, x1 = 0.0744	551 ± 4
333.3 K, 9690 kPa, x1 = 0.0744	556 ± 4
333.3 K, 9740 kPa, x1 = 0.0744	563 ± 4
333.3 K, 9810 kPa, x1 = 0.0744	571 ± 4
333.3 K, 9900 kPa, x1 = 0.0744	578 ± 4
333.3 K, 9980 kPa, x1 = 0.0744	586 ± 4
333.3 K, 10100 kPa, x1 = 0.0744	597 ± 4
333.3 K, 10250 kPa, x1 = 0.0744	608 ± 4
333.3 K, 10410 kPa, x1 = 0.0744	620 ± 4
333.3 K, 10600 kPa, x1 = 0.0744	632 ± 4
333.3 K, 10840 kPa, x1 = 0.0744	645 ± 4
333.3 K, 11110 kPa, x1 = 0.0744	658 ± 4
333.3 K, 11420 kPa, x1 = 0.0744	672 ± 4
333.3 K, 11800 kPa, x1 = 0.0744	686 ± 4
333.3 K, 12260 kPa, x1 = 0.0744	701 ± 4
333.3 K, 12810 kPa, x1 = 0.0744	717 ± 4
333.3 K, 13470 kPa, x1 = 0.0744	733 ± 4
333.3 K, 14290 kPa, x1 = 0.0744	750 ± 4
333.3 K, 14750 kPa, x1 = 0.0744	759 ± 4
333.3 K, 15240 kPa, x1 = 0.0744	768 ± 4
337.4 K, 9620 kPa, x1 = 0.1488	705 ± 4
337.4 K, 9770 kPa, x1 = 0.1488	709 ± 4
337.4 K, 9890 kPa, x1 = 0.0981	605 ± 4
337.4 K, 9930 kPa, x1 = 0.0744	509 ± 4
337.4 K, 9950 kPa, x1 = 0.1488	714 ± 4
337.4 K, 9960 kPa, x1 = 0.0483	378 ± 4
337.4 K, 9960 kPa, x1 = 0.0744	513 ± 4
337.4 K, 9980 kPa, x1 = 0.0981	612 ± 4
337.4 K, 10010 kPa, x1 = 0.0744	520 ± 4
337.4 K, 10040 kPa, x1 = 0.0483	384 ± 4
337.4 K, 10070 kPa, x1 = 0.0981	619 ± 4
337.4 K, 10080 kPa, x1 = 0.0744	527 ± 4
337.4 K, 10090 kPa, x1 = 0.0483	390 ± 4
337.4 K, 10150 kPa, x1 = 0.0981	625 ± 4
337.4 K, 10150 kPa, x1 = 0.1488	719 ± 4
337.4 K, 10160 kPa, x1 = 0.0483	396 ± 4
337.4 K, 10180 kPa, x1 = 0.0744	536 ± 4
337.4 K, 10230 kPa, x1 = 0.0483	402 ± 4
337.4 K, 10250 kPa, x1 = 0.0981	632 ± 4
337.4 K, 10280 kPa, x1 = 0.0744	547 ± 4
337.4 K, 10290 kPa, x1 = 0.0483	409 ± 4
337.4 K, 10360 kPa, x1 = 0.0483	415 ± 4
337.4 K, 10360 kPa, x1 = 0.0981	639 ± 4
337.4 K, 10360 kPa, x1 = 0.1488	724 ± 4
337.4 K, 10420 kPa, x1 = 0.0483	422 ± 4
337.4 K, 10420 kPa, x1 = 0.0744	560 ± 4
337.4 K, 10490 kPa, x1 = 0.0483	429 ± 4
337.4 K, 10500 kPa, x1 = 0.0981	647 ± 4
337.4 K, 10550 kPa, x1 = 0.0744	571 ± 4
337.4 K, 10570 kPa, x1 = 0.0483	436 ± 4
337.4 K, 10580 kPa, x1 = 0.1488	729 ± 4
337.4 K, 10630 kPa, x1 = 0.0981	654 ± 4
337.4 K, 10650 kPa, x1 = 0.0483	444 ± 4
337.4 K, 10700 kPa, x1 = 0.0744	583 ± 4
337.4 K, 10730 kPa, x1 = 0.0483	452 ± 4
337.4 K, 10790 kPa, x1 = 0.0981	662 ± 4
337.4 K, 10820 kPa, x1 = 0.0483	459 ± 4
337.4 K, 10840 kPa, x1 = 0.1488	735 ± 4
337.4 K, 10870 kPa, x1 = 0.0744	595 ± 4
337.4 K, 10900 kPa, x1 = 0.0483	468 ± 4
337.4 K, 10960 kPa, x1 = 0.0981	670 ± 4
337.4 K, 10990 kPa, x1 = 0.0483	477 ± 4
337.4 K, 11060 kPa, x1 = 0.0744	607 ± 4
337.4 K, 11090 kPa, x1 = 0.0483	485 ± 4
337.4 K, 11090 kPa, x1 = 0.1488	740 ± 4
337.4 K, 11170 kPa, x1 = 0.0981	678 ± 4
337.4 K, 11190 kPa, x1 = 0.0483	495 ± 4
337.4 K, 11270 kPa, x1 = 0.0483	501 ± 4
337.4 K, 11270 kPa, x1 = 0.0744	620 ± 4
337.4 K, 11340 kPa, x1 = 0.0483	508 ± 4
337.4 K, 11380 kPa, x1 = 0.0981	686 ± 4
337.4 K, 11380 kPa, x1 = 0.1488	746 ± 4
337.4 K, 11440 kPa, x1 = 0.0483	516 ± 4
337.4 K, 11510 kPa, x1 = 0.0483	521 ± 4
337.4 K, 11520 kPa, x1 = 0.0744	634 ± 4
337.4 K, 11640 kPa, x1 = 0.0981	694 ± 4
337.4 K, 11680 kPa, x1 = 0.1488	751 ± 4
337.4 K, 11830 kPa, x1 = 0.0744	648 ± 4
337.4 K, 11930 kPa, x1 = 0.0981	703 ± 4
337.4 K, 12030 kPa, x1 = 0.1488	757 ± 4
337.4 K, 12200 kPa, x1 = 0.0744	663 ± 4
337.4 K, 12240 kPa, x1 = 0.0981	711 ± 4
337.4 K, 12380 kPa, x1 = 0.1488	762 ± 4
337.4 K, 12580 kPa, x1 = 0.0981	721 ± 4
337.4 K, 12630 kPa, x1 = 0.0744	679 ± 4
337.4 K, 12750 kPa, x1 = 0.1488	768 ± 4
337.4 K, 12950 kPa, x1 = 0.0981	729 ± 4
337.4 K, 13160 kPa, x1 = 0.0744	695 ± 4
337.4 K, 13180 kPa, x1 = 0.1488	774 ± 4
337.4 K, 13380 kPa, x1 = 0.0981	739 ± 4
337.4 K, 13450 kPa, x1 = 0.1488	778 ± 4
337.4 K, 13780 kPa, x1 = 0.1488	781 ± 4
337.4 K, 13800 kPa, x1 = 0.0744	713 ± 4
337.4 K, 14110 kPa, x1 = 0.0981	753 ± 4
337.4 K, 14120 kPa, x1 = 0.1488	786 ± 4
337.4 K, 14480 kPa, x1 = 0.1488	790 ± 4
337.4 K, 14580 kPa, x1 = 0.0744	731 ± 4
337.4 K, 14830 kPa, x1 = 0.1488	794 ± 4
337.4 K, 14970 kPa, x1 = 0.0981	768 ± 4
337.4 K, 15140 kPa, x1 = 0.0744	742 ± 4
337.4 K, 15300 kPa, x1 = 0.0981	774 ± 4
